From US8586542B2, “Small molecule apoptosis promoters” (Joyant Pharmaceuticals, Inc., priority 2006, dated 2013) come the findings set out here.

Test [1] addresses T1, truncated XIAP containing only BIR1, BIR2, and BIR3 domains (Homo sapiens, UniProt P98170).
T1 construct: truncated XIAP containing only BIR1, BIR2, and BIR3 domains
Put plainly: Fluorescent polarization assay (Bir binding). Conditions: competition with 2 nM fluorescein labeled AVPI peptide, room temperature, 1 hour. The protocol: Increasing concentrations of Smac compounds are incubated with 2 nM of labeled peptide (fluorescein labeled 10 mer peptide with AVPI 4 amino acids at its N terminus-Alexa Fluor 488) and truncated XIAP containing only BIR1, BIR2, and BIR3 domains at room temperature for 1 hour. Fluorescence reading, indicative of the bound portion of the labeled peptide, is measured in milipolarization units (mP). The more compound added, less fluorescein labeled peptide bind to the protein due to the competitive binding and less fluorescence signal is released.
Based on this principle, we obtain the Ki value that evaluates compound's binding affinity.

In test [2] the test system is HCC461 cells. The experiment in a line: Cell viability assay in HCC461 cells (WST-1). The format is cell-based. Conditions: read-out: HCC461 cell. The protocol:
HCC461 cells plated in 96 well plates at 5×10^4/ml cell density are treated with 50× synthetic Smac mimetic compounds (final concentration range between 30 uM and 0.001 uM). After 48 hrs incubation at 37° C. and 5% CO2, viability of the cells are measured using Cell Proliferation Reagent WST-1 assay kit (Roche Cat #11 644 807 001).
The tetrazolium salts are cleaved to formazan by cellular enzymes. An expansion in the number of viable cells results in an increase in the overall activity of mitochondrial dehydrogenases in the samples. This augmentation in the enzyme activity leads to an increase in the amount of formazan dye formed, which directly correlates to the number of metabolically active cells in the culture. Quantification of the formazan dye produced by metabolically active cells by using a microplate (ELISA) reader at 420-480 nm.

Test [3] deals with Caspase3 in Hela S100. The experiment in a line: In-vitro caspase-3 activation assay in Hela S100 extract. It counts as biochemical. Conditions: 100 nM compound, Hela S100, 1 mM dATP; slope versus control (compound 1 = Caspase std.). As to the method:
Caspase3 in most cell extracts can be activated by the addition of 1 mM dATP through the mitochondria caspase pathway. […] Taking advantage of this feature, we use 100 nM of synthetic Smac mimetic compound to test its ability to eliminate IAPB in the Hela S100 and fully induce Caspase3 activity. The In Vitro Caspase3 assay is carried out at 30° C., incubating 100 nM compounds with 30 ug of Hela S100, 1 mM dATP, 10 uM Caspase3 fluorogenic substrate (Caspase3 Substrate II, Fluorogenic, #235425 from Calbiochem). The readout is caspase-3 activity represented by relative fluorogenic unit, which is recorded kinetically. The slope in linear region of the curve for each compound is calculated.
The ratio of each synthetic compound's slope versus the slope of control reflects in vitro caspase-3 activation ability of compounds.

[4] abbreviates: HCC461, 48 hrs incubation, WST-1 viability.

Each structure is given as a SMILES string. Like-named read-outs stand apart in the source and are kept apart here.

T1 sequence (P98170 1-356 limits assumed): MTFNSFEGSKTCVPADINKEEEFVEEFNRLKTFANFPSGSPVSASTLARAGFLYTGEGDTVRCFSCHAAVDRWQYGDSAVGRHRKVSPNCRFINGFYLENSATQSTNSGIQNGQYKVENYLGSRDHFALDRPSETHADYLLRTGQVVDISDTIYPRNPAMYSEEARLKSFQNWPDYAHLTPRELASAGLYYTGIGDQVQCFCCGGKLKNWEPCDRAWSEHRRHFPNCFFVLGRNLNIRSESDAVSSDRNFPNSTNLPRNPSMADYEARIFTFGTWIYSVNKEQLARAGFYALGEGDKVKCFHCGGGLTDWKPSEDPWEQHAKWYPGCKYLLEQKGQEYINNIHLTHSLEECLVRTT

Turning to `CNC(C)C(=O)N[C@@H](CCCCCC[C@H](NC(=O)[C@H](C)NC)C(=O)N1CCC[C@H]1C(=O)NC(c1ccccc1)c1ccccc1)C(=O)N1CCC[C@H]1C(=O)NC(c1ccccc1)c1ccccc1` (some centres unmarked) [Compound 4], in test [1], the Bir binding was 0.11 µM. In addition, the IC50 in test [2] (setting [4]) stood at 25 nM. In addition, the Caspase % in test [3] turned out to be 55%.
Turning to `CN[C@@H](C)C(=O)N[C@@H](CCCCNC(=O)CC(=O)NCCCC[C@H](NC(=O)[C@H](C)NC)C(=O)N1CCC[C@H]1C(=O)N[C@@H]1CCCc2ccccc21)C(=O)N1CCC[C@H]1C(=O)N[C@@H]1CCCc2ccccc21.Cl.Cl` [Compound 50], in test [1], the Bir binding worked out at 0.2 µM. Also, in test [2] (setting [4]), the IC50 came to 20 nM. Also, the Caspase % in test [3] worked out at 97%.
The like results for `CN[C@@H](C)C(=O)N[C@H](C(=O)N1CCC[C@H]1C(=O)N[C@@H]1CCCc2ccccc21)[C@@H](C)OCc1nnn2c1-c1c(CO[C@H](C)[C@H](NC(=O)[C@H](C)NC)C(=O)N3CCC[C@H]3C(=O)N[C@@H]3CCCc4ccccc43)nnn1CC2.Cl.Cl` [Compound 23] were, in that order, 0.13 µM, 490 nM and 109%.
For `CN[C@@H](C)C(=O)N[C@@H](CCCCNC(=O)c1cccc(C(=O)NCCCC[C@H](NC(=O)[C@H](C)NC)C(=O)N2CCC[C@H]2C(=O)N[C@@H]2CCCc3ccccc32)c1)C(=O)N1CCC[C@H]1C(=O)N[C@@H]1CCCc2ccccc21.Cl.Cl` [Compound 47], the Bir binding in test [1] is 0.19 µM. The IC50 in test [2] (setting [4]) is 20 nM. This compound had a Caspase % in test [3] of 99%.
In test [1], `CN[C@@H](C)C(=O)N[C@@H](CCCc1ccc(C[C@H](NC(=O)[C@H](C)NC)C(=O)N2CCC[C@H]2C(=O)N[C@@H]2CCCc3ccccc32)cc1)C(=O)N1CCC[C@H]1C(=O)N[C@@H]1CCCc2ccccc21.Cl.Cl` [Compound 41] came in with a Bir binding of 0.3 µM. For the same compound, the IC50 in test [2] (setting [4]) was 20 nM. This compound gave a Caspase % in test [3] of 99%.
Consider `CN[C@@H](C)C(=O)N[C@@H](Cc1cn(CCCn2cc(C[C@H](NC(=O)[C@H](C)NC)C(=O)N3CCC[C@H]3C(=O)N[C@@H]3CCCc4ccccc43)nn2)nn1)C(=O)N1CCC[C@H]1C(=O)N[C@@H]1CCCc2ccccc21.Cl.Cl` [Compound 17], for which the Bir binding in test [1] amounted to 0.136 µM. The IC50 in test [2] (setting [4]) was 690 nM. In test [3], this compound gave a Caspase % of 98%.
In test [1], `CN[C@@H](C)C(=O)N[C@@H](CC#CC#CC[C@H](NC(=O)[C@H](C)NC)C(=O)N1CCC[C@H]1C(=O)N[C@@H]1CCCc2ccccc21)C(=O)N1CCC[C@H]1C(=O)N[C@@H]1CCCc2ccccc21` [Compound 1] registered a Bir binding of 0.07 µM. Further, the IC50 in test [2] (HCC461, 48 h) is 4 nM. The Caspase % in test [3] worked out at 100%.
Compound `CC[C@H](NC)C(=O)N[C@H](C(=O)N1CCC[C@H]1C(=O)N[C@@H]1CCCc2ccccc21)c1ccc(C#CCO[C@H](C)[C@H](NC(=O)[C@H](C)NC)C(=O)N2CCC[C@H]2C(=O)N[C@@H]2CCCc3ccccc32)cc1.Cl.Cl` [Compound 39] registered a Bir binding in test [1] of 0.18 µM. The IC50 in test [2] (setting [4]) was 160 nM. The Caspase % in test [3] amounted to 102%.
`CC[C@H](NC)C(=O)N[C@@H](CCCCCC[C@H](NC(=O)[C@H](CC)NC)C(=O)N1CCC[C@H]1C(=O)N[C@@H]1CCCc2ccccc21)C(=O)N1CCC[C@H]1C(=O)N[C@@H]1CCCc2ccccc21` [Compound 10]: the Bir binding in test [1] stood at 0.2 µM. Further, the IC50 in test [2] (setting [4]) was determined as 20 nM. Further, in test [3], the Caspase % is on record as 105%.
The matching figures for `CN[C@@H](C)C(=O)N[C@@H](CCCc1ccc([C@H](NC(=O)[C@H](C)NC)C(=O)N2CCC[C@H]2C(=O)N[C@@H]2CCCc3ccccc32)cc1)C(=O)N1CCC[C@H]1C(=O)N[C@@H]1CCCc2ccccc21` [Compound 28]: 0.2 µM, 70 nM and 102%.
In test [1], `CN[C@@H](C)C(=O)N[C@H](C(=O)N1CCCC1)c1ccc(C#CCO[C@H](C)[C@H](NC(=O)[C@H](C)NC)C(=O)N2CCC[C@H]2C(=O)N[C@@H]2CCCc3ccccc32)cc1.Cl.Cl` [Compound 40] yielded a Bir binding of 0.15 µM. Moreover, the IC50 in test [2] (setting [4]) came to 30 nM. This compound showed a Caspase % in test [3] of 85%.
`CN[C@@H](C)C(=O)N[C@@H](Cc1nnn2c1-c1c(C[C@H](NC(=O)[C@H](C)NC)C(=O)N3CCC[C@H]3C(=O)N[C@@H]3CCCc4ccccc43)nnn1CC2)C(=O)N1CCCC1C(=O)N[C@@H]1CCCc2ccccc21.Cl.Cl` (some centres unmarked) [Compound 21] showed a Bir binding in test [1] of 1.13 µM. Further, the IC50 in test [2] (setting [4]) stood at 2200 nM. In addition, the Caspase % in test [3] was 70%.
The compound `CN[C@@H](C)C(=O)N[C@H](C(=O)N1CCC[C@H]1C(=O)N[C@@H]1CCCc2ccccc21)c1ccc(C#CCO[C@H](C)[C@H](NC(=O)[C@H](C)NC)C(=O)N2CCC[C@H]2C(=O)N[C@@H]2CCCc3ccccc32)cc1` [Compound 32] registered a Bir binding in test [1] of 0.08 µM. The IC50 in test [2] (setting [4]) came to 5 nM. Further, in test [3], the Caspase % is on record as 109%.
The matching figures for `CN[C@@H](C)C(=O)N[C@@H](CCCCNC(=O)NCCCC[C@H](NC(=O)[C@H](C)NC)C(=O)N1CCC[C@H]1C(=O)N[C@@H]1CCCc2ccccc21)C(=O)N1CCC[C@H]1C(=O)N[C@@H]1CCCc2ccccc21.Cl.Cl` [Compound 48]: 0.2 µM, 56 nM and 103%.
The like results for `CCC[C@H](NC)C(=O)N[C@@H](CC#CC#CC[C@H](NC(=O)[C@H](C)NC)C(=O)N1CCC[C@H]1C(=O)N[C@@H]1CCCc2ccccc21)C(=O)N1CCC[C@H]1C(=O)N[C@@H]1CCCc2ccccc21.Cl.Cl` [Compound 15] were, in that order, 0.638 µM, 80 nM and 87%.
Take `CN[C@@H](C)C(=O)NC(C(=O)N[C@@H](Cc1cn(C/C=C\Cn2cc(C[C@H](NC(=O)[C@@H](NC(=O)[C@H](C)NC)C(C)(C)C)C(=O)N[C@@H]3CCCc4ccccc43)nn2)nn1)C(=O)N[C@@H]1CCCc2ccccc21)C(C)(C)C.Cl.Cl` (some centres unmarked) [Compound 24]: the Bir binding in test [1] is 1.5 µM. The IC50 in test [2] (setting [4]) was 1400 nM. The Caspase % in test [3] stood at 81%.
In the case of `CN[C@@H](C)C(=O)N[C@@H](Cc1ccc(OCCCCOc2ccc(C[C@H](NC(=O)[C@H](C)NC)C(=O)N3CCCC3C(=O)N[C@@H]3CCCc4ccccc43)cc2)cc1)C(=O)N1CCCC1C(=O)N[C@@H]1CCCc2ccccc21.Cl.Cl` (some centres unmarked) [Compound 45], in test [1], the Bir binding is 0.15 µM. Besides, the IC50 in test [2] (setting [4]) amounted to 2 nM. Further, the Caspase % in test [3] is 136%.
Consider `CN[C@@H](C)C(=O)N[C@H](C(=O)N1CCCC1C(=O)N[C@@H]1CCCc2ccccc21)[C@@H](C)OCCCCCCO[C@H](C)[C@H](NC(=O)[C@H](C)NC)C(=O)N1CCC[C@H]1C(=O)N[C@@H]1CCCc2ccccc21.Cl.Cl` (some centres unmarked) [Compound 14], for which the Bir binding in test [1] came to 0.158 µM. The IC50 in test [2] (setting [4]) was determined as 620 nM. Moreover, the Caspase % in test [3] is 104%.
For the compound `CN[C@@H](C)C(=O)N[C@@H](CCCc1ccc([C@H](NC(=O)[C@H](C)NC)C(=O)N2CCC[C@H]2C(=O)N[C@@H]2CCCc3ccccc32)cc1)C(=O)N1CCC[C@H]1C(=O)N[C@@H]1CCCc2ccccc21.Cl.Cl` [Compound 38], the Bir binding in test [1] was found to be 0.2 µM. Moreover, the Caspase % in test [3] is reported as 102%.
